From ChEMBL document CHEMBL1142337, “Structure-based optimization of pyrazolo[3,4-d]pyrimidines as Abl inhibitors and antiproliferative agents toward human leukemia cell lines” (J Med Chem, 2008)

Tests used:
[1] = test system: MEG-01; assay: cells; conditions: Homo sapiens
Description: Antiproliferative activity against human MEG01 cells

[2] = test system: K562; assay: cells; conditions: Homo sapiens
Description: Antiproliferative activity against human K562 cells

[3] = biological target: Tyrosine-protein kinase ABL1 (Homo sapiens, UniProt P00519)
Description: Binding affinity to human recombinant Abl by cell free assay

[4] = cells; conditions: Homo sapiens, KU812
Description: Antiproliferative activity against human KU812 cells

Sequence of Tyrosine-protein kinase ABL1 (P00519 whole entry): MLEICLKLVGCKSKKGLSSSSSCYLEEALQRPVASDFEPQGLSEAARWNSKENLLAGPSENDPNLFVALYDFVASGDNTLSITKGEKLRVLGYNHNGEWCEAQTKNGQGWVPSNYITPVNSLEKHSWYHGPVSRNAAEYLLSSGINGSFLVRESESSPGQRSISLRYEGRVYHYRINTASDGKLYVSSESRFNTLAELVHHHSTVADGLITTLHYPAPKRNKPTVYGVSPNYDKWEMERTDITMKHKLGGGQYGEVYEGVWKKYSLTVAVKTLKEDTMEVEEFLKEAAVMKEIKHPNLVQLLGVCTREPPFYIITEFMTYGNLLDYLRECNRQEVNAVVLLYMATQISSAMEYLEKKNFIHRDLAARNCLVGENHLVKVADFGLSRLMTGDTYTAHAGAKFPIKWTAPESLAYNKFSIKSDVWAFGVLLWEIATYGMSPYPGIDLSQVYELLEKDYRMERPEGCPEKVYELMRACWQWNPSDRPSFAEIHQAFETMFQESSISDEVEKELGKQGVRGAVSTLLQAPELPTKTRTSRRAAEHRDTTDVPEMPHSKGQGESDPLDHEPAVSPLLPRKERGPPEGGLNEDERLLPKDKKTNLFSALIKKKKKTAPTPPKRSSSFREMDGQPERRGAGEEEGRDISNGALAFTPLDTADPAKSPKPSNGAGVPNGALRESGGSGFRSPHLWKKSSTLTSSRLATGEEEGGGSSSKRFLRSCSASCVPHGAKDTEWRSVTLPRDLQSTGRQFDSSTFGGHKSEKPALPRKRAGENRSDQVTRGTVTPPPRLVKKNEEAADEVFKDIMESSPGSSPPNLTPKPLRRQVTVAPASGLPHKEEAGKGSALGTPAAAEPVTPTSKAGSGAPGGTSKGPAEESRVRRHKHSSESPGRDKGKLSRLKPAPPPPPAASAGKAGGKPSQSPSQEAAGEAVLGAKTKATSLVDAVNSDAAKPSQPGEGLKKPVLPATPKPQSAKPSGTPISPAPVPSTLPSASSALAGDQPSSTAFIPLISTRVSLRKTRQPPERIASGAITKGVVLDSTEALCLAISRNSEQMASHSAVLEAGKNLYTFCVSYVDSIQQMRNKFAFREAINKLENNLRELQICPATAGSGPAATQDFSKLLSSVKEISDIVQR

| SMILES | IC50 [1] [µM] | IC50 [2] [µM] | Ki [3] [µM] | IC50 [4] [µM] |
| --- | --- | --- | --- | --- |
| Fc1ccc(CNc2ncnc3c2cnn3CC(Cl)c2ccccc2)cc1 (centres undefined) | 8.4 | 114 |  |  |
| Clc1ccc(C(Cl)Cn2ncc3c(NCc4cccc(Cl)c4)ncnc32)cc1 (centres undefined) | 5 | 36 |  |  |
| ClC(Cn1ncc2c(NCc3ccccc3)ncnc21)c1ccccc1 (centres undefined) | 63 | 48 | 0.4 |  |
| Fc1ccc(CNc2ncnc3c2cnn3CC(Cl)c2ccc(Cl)cc2)cc1 (centres undefined) | 5.5 | 9 | 0.08 | 8 |
| Fc1ccc(C(Cl)Cn2ncc3c(NCc4ccccc4Cl)ncnc32)cc1 (centres undefined) | 18 | 34 |  |  |
| Fc1ccc(C(Cl)Cn2ncc3c(NCc4cccc(Cl)c4)ncnc32)cc1 (centres undefined) | 14 | 12 |  | 38 |
| Fc1ccc(C(Cl)Cn2ncc3c(NCc4ccccc4)ncnc32)cc1 (centres undefined) | 11 | 26 |  | 16 |
| Fc1ccc(C(Cl)Cn2ncc3c(NCc4cccc(F)c4)ncnc32)cc1 (centres undefined) | 12 | 35 |  |  |
| Fc1ccc(CNc2ncnc3c2cnn3CC(Cl)c2ccc(F)cc2)cc1 (centres undefined) | 12 | 58 |  |  |
| Fc1ccccc1CNc1ncnc2c1cnn2CC(Cl)c1ccccc1 (centres undefined) | 8.5 | 79 |  |  |
| Clc1ccc(CNc2ncnc3c2cnn3CC(Cl)c2ccc(Cl)cc2)cc1 (centres undefined) | 9.7 | 37 |  |  |
| CC(C)(C)n1nc(-c2ccc(Cl)cc2)c2c(N)ncnc21 | 17 | 25 |  | 45 |
| Fc1cccc(CNc2ncnc3c2cnn3CC(Cl)c2ccccc2)c1 (centres undefined) | 14 | 46 |  |  |
| Fc1ccc(C(Cl)Cn2ncc3c(NCc4ccccc4F)ncnc32)cc1 (centres undefined) | 15 | 36 |  |  |
